We go through 1 compound from patent US20160106837A1, “COMBINATION OF CD37 ANTIBODIES WITH CHLORAMBUCIL” (BOEHRINGER INGELHEIM INTERNATIONAL GMBH, priority 2013, published 2016).

Entries after “also recorded” stand apart in the source; their conditions may differ.

The test system of series [1] is human follicular lymphoma DOHH2. The series is described as follows: Subcutaneous xenograft model of the human follicular lymphoma DOHH2 in C.B-17 scid mice: tumor growth. Format: in vivo. A general note: In xenograft studies the graft and the host belong to different species.
Series [2] in a line: Body weight / tolerability in DOHH2 tumor-bearing C.B-17 scid mice.

For orientation: TGI means how far tumour growth fell short of that in controls. A low value points to little slowing of growth. As to `O=C(O)CCCc1ccc(N(CCCl)CCCl)cc1` [chlorambucil, 4-[Bis(2-chloroethy)amino]benzenebutaonic acid], in series [1] (day 16), the “CR (complete tumor regression)” value is reported as 0 x/7, the “PR (partial tumor regression)” value is 0 x/7 and the “tumor regression (in words)” value was “tumor regressions were not observed”. In series [1] (median, day 16, A2 10 mg/kg i.p. d1,5,8,12,15, chlorambucil 6 mg/kg i.p. d2,6), this compound had a TGI of 71%. For the same compound, the “tumor growth inhibition (in words)” value in series [1] (vs controls) is “moderate but significant inhibition of tumor growth; also recorded: moderate but significant efficacy”. For the same compound, the “body weight loss during first week” value in series [2] (after one week / first 7 days of the study) is given as 13.4%. Moreover, in series [2] (median body weight change, day 16), the Weight change is recorded as −5.4%.
